Measurements published in US20250195604A1, “Compositions and Methods of Treatment of Certain Vasculitis Syndromes” (Soligenix, Inc., priority 2023, published 2025).
“Also recorded” adds a separate entry of the source. Read-outs that look alike come from different tables or passages of the source. No end group written: not given here.

Tests used:
[1] = test system: severe oral mucositis (SOM); conditions: cited from earlier work; for overall infection rate: Kudrimoti 2016
[2] = test system: whole blood stimulated with LPS (E. coli); assay: Phase 1 study: in vitro LPS stimulation of whole blood from SAD and MAD volunteers, cytokine and chemokine analytes; type: in vivo, human
Protocol: Solid lines indicate the mean response, dashed lines the respective 95% CI for the population.
In a Phase 1 study, patients received single ascending doses (0.15 to 8.0 mg/kg) and multiple ascending doses (daily 7× 0.5 to 6.5 mg/kg) of dusquetide as 4-minutes IV infusions. To determine the pharmacodynamic profile of dusquetide, cytokine and chemokine analytes were quantified after 4 h of in vitro stimulation of whole blood with LPS (E. coli) to determine dusquetide effects on dose, gender and any extended impact on PD.
The following panel of cytokine and chemokine analytes were quantified: IL-la; IL-1B; IL-6; IL-1ra; TNFα; Tumor Necrosis Factor-Receptor II (TNF RII); MCP-1; Macrophage Inflammatory Protein-1alpha (MIP-la; also known as CCL3); MIP-1B (also known as CCL4) and RANTES (also known as CCL5). The dusquetide-treated population (N=56) in the combined SAD and MAD data set was subdivided into “low dose” (N=26, 0.15-2.0 mg/kg) and “high dose” (N=30; 3.0-8.0 mg/kg) groups and these were compared to the combined placebo group (N=22).

[3] = test system: NFKB; assay: NFKB activation on dusquetide binding to p62; type: cell-based
[4] = molecular target: p62 (Homo sapiens, UniProt Q13501); conditions: Yu 2009; cited from earlier work
[5] = molecular target: sequestosome-1, also known as p62 (Homo sapiens, UniProt Q13501); conditions: Yu 2009, Zhang 2022; cited from earlier work
[6] = test system: bacterial challenge; assay: Bacterial challenge in mice rendered leukopenic by cyclophosphamide; type: in vivo, mouse
[7] = test system: severe oral mucositis (SOM); assay: Phase 3 study IDR-OM-02, oral mucositis in head and neck cancer patients receiving chemoradiation; type: in vivo, human; conditions: 1.5 mg/kg twice per week
Protocol: Subsequently a Phase 3 international study (Study IDR-OM-02) evaluated dusquetide in the treatment of […] in head and neck cancer patients receiving concomitant chemoradiation therapy (at least 55 Gy radiation therapy and 80 to 100 mg/m2 cisplatin received every third week). 266 patients were enrolled in the randomized, blinded and placebo-controlled study assessing treatment with 1.5 mg/kg dusquetide administered twice per week as a 4-minute infusion.

[8] = test system: response to lipopolysaccharide; conditions: North 2016, Yu 2009; cited from earlier work
[9] = test system: nonhuman primate (NHP) primary cell cultures; conditions: North 2016; cited from earlier work
[10] = test system: human blood challenged with LPS; assay: LPS challenge of human blood exposed to dusquetide in vitro; type: cell-based; conditions: dusquetide exposure in vitro
Text: (§1) The innate immune system involves numerous cell types distributed throughout the body in both circulating and tissue-resident compartments. The interaction of all the cells defines the aggregate response. […] Nevertheless, cellular and molecular studies with individual cell types or sub-groups of cell types are informative but must be interpreted cautiously when used to predict the behavior of the system in vivo. […] By contrast, when dusquetide exposure of either mouse or human blood occurs in vitro, although the TNFα response to LPS challenge is unaffected, the MCP-1 response is reduced. The responses of mouse and human primary blood cells to dusquetide in this in vitro setting are quantitatively and qualitatively similar.

[11] = test system: human epithelial cell lines; assay: Signalling after dusquetide exposure in human epithelial cell lines; type: cell-based
[12] = test system: NHP blood cultured with LPS; assay: Ex vivo LPS challenge of NHP blood after in vivo dusquetide; conditions: for IL-1β response to LPS / MIP-la response to LPS: NHP
Text: (§2) Further studies have explored the ability of blood cells to respond to a pathogen (or pathogen-like) challenge in vitro after prior exposure to dusquetide in vivo—an “ex vivo” test system that provides information about the “responsiveness” of the innate defense system. The responsiveness of mouse and NHP innate defense systems have been characterized by measuring changes in cytokine and chemokine production following ex vivo challenge of blood cells with LPS. In general, no evidence of broad-spectrum activation was observed.

[13] = test system: dextran sulphate sodium (DSS)-induced colitis; conditions: Kudrimoti 2016, levels comparative to maximal steroid use; cited from earlier work
[14] = test system: mouse macrophage-like cell line; conditions: medium of dusquetide-incubated splenocytes, North 2016; cited from earlier work
[15] = test system: MRSA; assay: IV MRSA challenge model (bacteremia) in mice
[16] = test system: mouse primary cell cultures; conditions: North 2016; cited from earlier work
[17] = test system: MRSA, S. aureus, K. pneumoniae, B. pseudomallei; conditions: mouse, in vivo; cited from earlier work
[18] = test system: cytokine or chemokine levels; assay: Circulating cytokine and chemokine levels in normal mice; type: in vivo, mouse
[19] = test system: human primary cell cultures; conditions: North 2016; cited from earlier work
[20] = test system: MRSA; conditions: mouse, in vivo
[21] = test system: mouse blood cells challenged with LPS; assay: Ex vivo LPS challenge of mouse blood cells after in vivo dusquetide
Text: as §1, §2

[22] = low dose group (0.15-2.0 mg/kg)
[23] = low dose group (0.15-2.0 mg/kg), 1 h timepoint, vs placebo or high dose
[24] = longer term, 12-24 h after administration
[25] = short term, 1 to 4 h after administration, modest
[26] = dusquetide in vivo before culture

p62, sequence (Q13501 whole entry): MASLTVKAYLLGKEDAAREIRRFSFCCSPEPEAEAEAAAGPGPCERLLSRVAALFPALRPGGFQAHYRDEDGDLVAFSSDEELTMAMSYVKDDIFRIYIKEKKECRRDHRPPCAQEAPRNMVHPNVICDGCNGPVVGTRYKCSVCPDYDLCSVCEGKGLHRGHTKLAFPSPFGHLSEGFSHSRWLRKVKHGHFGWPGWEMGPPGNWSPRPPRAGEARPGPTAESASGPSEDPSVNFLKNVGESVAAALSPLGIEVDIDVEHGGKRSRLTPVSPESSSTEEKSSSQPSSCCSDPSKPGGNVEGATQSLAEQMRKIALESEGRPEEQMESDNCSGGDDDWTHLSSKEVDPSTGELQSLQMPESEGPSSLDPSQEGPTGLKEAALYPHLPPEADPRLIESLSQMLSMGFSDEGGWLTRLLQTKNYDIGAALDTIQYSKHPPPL
sequestosome-1, also known as p62, sequence (Q13501 whole entry): as above

For “RIVPA-NH2 [dusquetide, L-arginyl-L-isoleucyl-L-valyl-L-prolyl-L-alanine-amide]”, the “formulation of oral ulcers” value ([1]; Kudrimoti 2016, Kudrimoti 2017) is listed as “suppress”, the overall infection rate [1] is listed as “reduction” and the overall infection rate ([1]; listed as Dusquetide) is listed as “decreasing”. The “measured cytokine and chemokine analytes” value ([2]; high dose group (3.0-8.0 mg/kg)) was “very similar to the placebo group”, the “ratio IL-1ra/IL-1B” value [2, 22] was “more distinct increased responses” and the “ratio TNF RII/TNFα” value [2, 22] was “more distinct increased responses”. For the same substance, the “IL-1B after LPS stimulation of whole blood” value [2, 23] was “slightly decreased”, the “IL-1ra after LPS stimulation of whole blood” value [2, 23] was “slightly increased” and the “IL-1x after LPS stimulation of whole blood” value [2, 23] was “slightly decreased”. For the same substance, the “TNFα after LPS stimulation of whole blood” value [2, 23] was “slightly decreased”, the “activation of NFKB” value [3] was “does not cause persistent activation” and the “p62 interaction with PKCS” value [4] was “no effect”. The “p62 interaction with RIP1” value [4] was “selectively alters”, the “p62 interaction with TRAF6” value [4] was “no effect” and the “binding to sequestosome-1 (p62)” value [5] was “bind (but not inhibit); also recorded: binds”. The survival [6] was “survival benefit”, the “response in duration of SOM” value ([7]; intent to treat (ITT) population) was “not” and the “response in duration of SOM” value ([7]; per protocol (PP) population) was “statistically significant response”. For the same substance, the “ILIra relative to IL-1B” value [8] was “increasing”, the “TNFRII relative to TNFα” value [8] was “increasing” and the “expression patterns of chemokines such as MCP-1” value (“expression patterns” below) [9] was “modulated”. For the same substance, the “MCP-1 response to LPS challenge” value [10] was “reduced”, the “TNFα response to LPS challenge” value [10] was “unaffected” and the C/EBPB activation [11] was “transient activation”. The “p38 MAP kinase activation” value [11] was “transient activation”, the “IL-1β response to LPS” value [12, 24] was “mild elevations” and the “MIP-la response to LPS” value [12, 24] was “mild elevations”. For the same substance, the “IL-1β response to LPS” value [12, 25] was “decreases”, the “MIP-la response to LPS” value [12, 25] was “decreases” and the “IL-1ra response to LPS” value ([12]; blood from dusquetide-treated NHP) was “marked increase”. The “responses of most analytes (47 cytokines and chemokines) to LPS” value ([12]; primate, dusquetide in vivo before culture) was “insignificant changes”, the “protection of the lower GI” value [13] was “further protection” and the “IL-6 response of macrophage cell line” value [14] was “suppressing”. For the same substance, the “IL-10 response of macrophage cell line” value [14] was “suppressing”, the “TNFα response of macrophage cell line” value [14] was “suppressing” and the “relation to antibiotic administration” value ([15]; IV, therapeutic or prophylactic administration) was “complementary to antibiotic administration”. For the same substance, the “IV dose at which efficacy is consistently seen” value ([15]; mice, IV) was “greater than or equal to 5 mg/kg”, the “duration of PD effects of a single dose” value ([15]; mice, depending on the dose level) was “up to 5 days” and the circulating half-life ([15]; mouse, in vivo) was “short”. The “expression patterns” value [16] was “modulated”, the bacterial growth [17] was “reduced bacterial growth” and the survival [17] was “increased survival”. For the same substance, the “cytokine or chemokine levels” value [18] was “no changes”, the “expression patterns” value [19] was “modulated” and the “swelling of abraded skin” value [20] was “reduced”. For the same substance, the “ulceration of abraded skin” value [20] was “reduced”, the “ex vivo MCP-1 response to LPS” value [21, 26] was “increases” and the “ex vivo TNFα response to LPS” value [21, 26] was “decreases”. For the same substance, the “responses of most analytes (58 cytokines and chemokines) to LPS” value [21, 26] was “insignificant changes” and the “ex vivo MCP-3 response to LPS” value ([21]; dusquetide in vivo vs saline) was “increases”.
